From ChEMBL document CHEMBL6087412, “Discovery of cloxiquine derivatives as potent HDAC inhibitors for the treatment of melanoma via activating PPARγ” (Eur J Med Chem, 2025)
Blank lines part the entries; values can stand above or below the compound they belong to. The source made the active and inactive calls. The rule behind the calls is not given here.

What was measured:
SK-MEL-5 [1] = assay: cells; conditions: Homo sapiens, SK-MEL-5, 72 h
Description: Antiproliferative activity against human SK-MEL-5 cells assessed as inhibition of cell growth incubated for 72 hrs by MTT assay

in vitro = conditions: human, MRC5 cells
Description: Antiproliferative activity against human MRC5 cells assessed as inhibition of cell growth incubated for 72 hrs by MTT assay

A-375 = assay: cells; conditions: Homo sapiens, A-375, 72 h
Description: Antiproliferative activity against human A-375 cells assessed as inhibition of cell growth incubated for 72 hrs by MTT assay

SK-MEL-5 [2] = assay: Induction of apoptosis in human SK-MEL-5 cells assessed as early apoptotic cells at 5 uM incubated for 48 hrs by Annexin V-APC/7-AAD staining based flow cytometric analysis (reference value: 2.29 %); format: functional
SK-MEL-5 [3] = assay: Induction of cell cycle arrest in human SK-MEL-5 cells assessed as accumulation of cells at G0/G1 phase at 5 uM incubated for 48 hrs by propidium iodide staining based flow cytometry (reference value: 66.27 %); format: functional
SK-MEL-5 [4] = assay: Induction of cell cycle arrest in human SK-MEL-5 cells assessed as accumulation of cells at S phase at 5 uM incubated for 48 hrs by propidium iodide staining based flow cytometry (reference value: 25.36 %); format: functional
SK-MEL-5 [5] = assay: Induction of apoptosis in human SK-MEL-5 cells assessed as viable cells at 5 uM incubated for 48 hrs by Annexin V-APC/7-AAD staining based flow cytometric analysis (reference value: 95.77 %); format: functional; conditions: for viability at 5 µM: Homo sapiens, SK-MEL-5, read-out: Activity
SK-MEL-5 [6] = assay: Induction of cell cycle arrest in human SK-MEL-5 cells assessed as accumulation of cells at G2/M phase at 5 uM incubated for 48 hrs by propidium iodide staining based flow cytometry (reference value: 8.36 %); format: functional
SK-MEL-5 [7] = assay: Induction of apoptosis in human SK-MEL-5 cells assessed as late apoptotic cells at 5 uM incubated for 48 hrs by Annexin V-APC/7-AAD staining based flow cytometric analysis (reference value: 0.9 %); format: functional
SK-MEL-5 [8] = assay: Induction of apoptosis in human SK-MEL-5 cells assessed as necrotic cells at 5 uM incubated for 48 hrs by Annexin V-APC/7-AAD staining based flow cytometric analysis (reference value: 1.05 %); format: functional
SK-MEL-5 [9] = assay: Inhibition of cell migration in human SK-MEL-5 cells incubated for 24 hrs by scratch assay; format: functional, cell-based
SK-MEL-5 [10] = assay: Induction of apoptosis in human SK-MEL-5 cells assessed as late apoptotic cells at 0.2 uM incubated for 48 hrs by Annexin V-APC/7-AAD staining based flow cytometric analysis (reference value: 0.9 %); format: functional
[11] = Toxicity in BALB/c mouse xenografted with human SK-MEL-5 cells assessed as body weight loss at 30 mg/kg,ip administrated for 21 consecutive days; format: organism-based; conditions: in vivo
Histone deacetylase 4 = Histone deacetylase 4 (Homo sapiens, UniProt P56524); assay: Inhibition of HDAC4 (unknown origin) using Ac-Leu-Gly-Lys(Tfa)-AMC as substrate by spectramax microplate reader analysis
Chain of Histone deacetylase 4 (P56524 whole entry): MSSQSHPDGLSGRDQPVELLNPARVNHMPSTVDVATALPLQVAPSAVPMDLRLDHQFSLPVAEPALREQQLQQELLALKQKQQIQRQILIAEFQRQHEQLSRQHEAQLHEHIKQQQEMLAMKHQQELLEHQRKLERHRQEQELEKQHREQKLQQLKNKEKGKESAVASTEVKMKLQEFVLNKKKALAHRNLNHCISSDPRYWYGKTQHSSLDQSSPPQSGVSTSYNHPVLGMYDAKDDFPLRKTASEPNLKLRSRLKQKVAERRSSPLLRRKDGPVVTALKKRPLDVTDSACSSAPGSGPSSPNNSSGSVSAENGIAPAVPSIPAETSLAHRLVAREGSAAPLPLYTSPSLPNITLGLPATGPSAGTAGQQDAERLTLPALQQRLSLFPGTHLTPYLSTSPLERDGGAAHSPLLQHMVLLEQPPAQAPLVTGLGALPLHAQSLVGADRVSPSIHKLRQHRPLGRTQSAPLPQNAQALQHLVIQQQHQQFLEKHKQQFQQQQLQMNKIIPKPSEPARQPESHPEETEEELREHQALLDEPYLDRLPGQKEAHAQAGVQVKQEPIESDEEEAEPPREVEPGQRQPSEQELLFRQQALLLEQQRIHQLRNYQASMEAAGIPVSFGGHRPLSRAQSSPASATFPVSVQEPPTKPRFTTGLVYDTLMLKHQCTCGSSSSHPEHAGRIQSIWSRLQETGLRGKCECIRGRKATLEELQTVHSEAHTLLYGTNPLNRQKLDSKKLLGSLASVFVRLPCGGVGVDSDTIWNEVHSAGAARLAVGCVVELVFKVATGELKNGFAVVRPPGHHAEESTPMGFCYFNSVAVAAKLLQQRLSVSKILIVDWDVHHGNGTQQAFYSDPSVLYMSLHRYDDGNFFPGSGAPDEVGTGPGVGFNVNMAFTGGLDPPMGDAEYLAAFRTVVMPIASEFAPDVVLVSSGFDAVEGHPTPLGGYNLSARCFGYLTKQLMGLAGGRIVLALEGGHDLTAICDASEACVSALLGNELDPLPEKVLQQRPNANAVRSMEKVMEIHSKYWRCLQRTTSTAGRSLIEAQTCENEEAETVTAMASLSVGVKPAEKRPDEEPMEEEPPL

SK-MEL-5 [12] = assay: Induction of cell cycle arrest in human SK-MEL-5 cells assessed as accumulation of cells at G2/M phase at 0.2 uM incubated for 48 hrs by propidium iodide staining based flow cytometry (reference value: 8.36 %); format: functional
SK-MEL-5 [13] = assay: Antitumor activity against human SK-MEL-5 cells xenografted with BALB/c mouse assessed as tumor growth inhibition at 30 mg/kg,ip administrated for 21 consecutive days; format: functional; conditions: read-out: TGI
SK-MEL-5 [14] = assay: Inhibition of cell invasion in human SK-MEL-5 cells at 0.2 to 5 uM incubated for 48 hrs by transwell assay; format: functional, cell-based; conditions: dose 0.2-5 µM
SK-MEL-5 [15] = assay: Antiproliferative activity against human SK-MEL-5 cells assessed as upregulation of PPARgamma expression incubated for 48 hrs by Western blotting analysis; format: functional, cell-based
SK-MEL-5 [16] = assay: Induction of apoptosis in human SK-MEL-5 cells assessed as viable cells at 1 uM incubated for 48 hrs by Annexin V-APC/7-AAD staining based flow cytometric analysis (reference value: 95.77 %); format: functional; conditions: read-out: Activity
SK-MEL-5 [17] = assay: Inhibition of glycolysis in human SK-MEL-5 cells assessed as reduction in lactate production at 2 uM incubated for 48 hrs in presence of GW9662 by chekineTM micro lactate Assay; format: functional, cell-based
SK-MEL-5 [18] = assay: Induction of apoptosis in human SK-MEL-5 cells assessed as necrotic cells at 0.2 uM incubated for 48 hrs by Annexin V-APC/7-AAD staining based flow cytometric analysis (reference value: 1.05 %); format: functional
SK-MEL-5 [19] = assay: Induction of apoptosis in human SK-MEL-5 cells assessed as late apoptotic cells at 1 uM incubated for 48 hrs by Annexin V-APC/7-AAD staining based flow cytometric analysis (reference value: 0.9 %); format: functional
SK-MEL-5 [20] = assay: Antiproliferative activity against human SK-MEL-5 cells assessed as inhibition of cell growth incubated for 72 hrs in presence of GW9662 by MTT assay; format: functional, cell-based
SK-MEL-5 [21] = assay: Induction of apoptosis in human SK-MEL-5 cells assessed as necrotic cells at 1 uM incubated for 48 hrs by Annexin V-APC/7-AAD staining based flow cytometric analysis (reference value: 1.05 %); format: functional
SK-MEL-5 [22] = assay: Induction of cell cycle arrest in human SK-MEL-5 cells assessed as accumulation of cells at G2/M phase at 1 uM incubated for 48 hrs by propidium iodide staining based flow cytometry (reference value: 8.36 %); format: functional
SK-MEL-5 [23] = assay: Induction of apoptosis in human SK-MEL-5 cells assessed as viable cells at 0.2 uM incubated for 48 hrs by Annexin V-APC/7-AAD staining based flow cytometric analysis (reference value: 95.77 %); format: functional; conditions: read-out: Activity
SK-MEL-5 [24] = assay: Induction of cell cycle arrest in human SK-MEL-5 cells assessed as accumulation of cells at G0/G1 phase at 1 uM incubated for 48 hrs by propidium iodide staining based flow cytometry (reference value: 66.27 %); format: functional
SK-MEL-5 [25] = assay: Induction of cell cycle arrest in human SK-MEL-5 cells assessed as accumulation of cells at S phase at 0.2 uM incubated for 48 hrs by propidium iodide staining based flow cytometry (reference value: 25.36 %); format: functional
SK-MEL-5 [26] = assay: Induction of apoptosis in human SK-MEL-5 cells assessed as early apoptotic cells at 1 uM incubated for 48 hrs by Annexin V-APC/7-AAD staining based flow cytometric analysis (reference value: 2.29 %); format: functional
SK-MEL-5 [27] = assay: Induction of cell cycle arrest in human SK-MEL-5 cells assessed as accumulation of cells at G0/G1 phase at 0.2 uM incubated for 48 hrs by propidium iodide staining based flow cytometry (reference value: 66.27 %); format: functional
SK-MEL-5 [28] = assay: Induction of apoptosis in human SK-MEL-5 cells assessed as early apoptotic cells at 0.2 uM incubated for 48 hrs by Annexin V-APC/7-AAD staining based flow cytometric analysis (reference value: 2.29 %); format: functional
SK-MEL-5 [29] = assay: Induction of cell cycle arrest in human SK-MEL-5 cells assessed as accumulation of cells at S phase at 1 uM incubated for 48 hrs by propidium iodide staining based flow cytometry (reference value: 25.36 %); format: functional

Compound: O=C(CCCOc1cccc2cccnc12)NO
IC50 (SK-MEL-5 [1]): 29.8 µM | IC50 at 72 h (in vitro): > 50 µM | IC50 (A-375): 32.8 µM

Compound: O=C(NO)c1ccccc1COc1cccc2cccnc12
IC50 (SK-MEL-5 [1]): 46.6 µM | IC50 at 72 h (in vitro): > 50 µM | IC50 (A-375): > 50 µM

Compound: O=C(NO)c1cccc(COc2cccc3cccnc23)c1
IC50 (SK-MEL-5 [1]): 41.5 µM | IC50 at 72 h (in vitro): > 50 µM | IC50 (A-375): > 50 µM

Compound: O=C(CCCCOc1cccc2cccnc12)NO
IC50 (SK-MEL-5 [1]): > 50 µM | IC50 at 72 h (in vitro): > 50 µM | IC50 (A-375): > 50 µM

Compound: O=C(NO)c1ccc(COc2ccc(Cl)c3cccnc23)cc1
IC50 (SK-MEL-5 [1]): > 50 µM | IC50 at 72 h (in vitro): > 50 µM | IC50 (A-375): > 50 µM

Compound: O=C(CCCCOc1ccc(Cl)c2cccnc12)NO
IC50 (SK-MEL-5 [1]): 21.6 µM | IC50 at 72 h (in vitro): > 50 µM | IC50 (A-375): 22.2 µM

Compound: O=C(NO)c1cccc(COc2ccc(Cl)c3cccnc23)c1
IC50 (SK-MEL-5 [1]): 24.2 µM | IC50 at 72 h (in vitro): > 50 µM | IC50 (A-375): 29.5 µM

Compound: O=C(Cc1ccc(COc2cccc3cccnc23)cc1)NO
IC50 (SK-MEL-5 [1]): > 50 µM | IC50 at 72 h (in vitro): > 50 µM | IC50 (A-375): > 50 µM

Compound: O=C(CCc1ccc(COc2ccc(Cl)c3cccnc23)cc1)NO
IC50 (SK-MEL-5 [1]): 17.4 µM | IC50 at 72 h (in vitro): > 50 µM | IC50 (A-375): 22.7 µM

Now those with a lower IC50 (SK-MEL-5 [1]), led by results:

IC50 (SK-MEL-5 [1]): 13.7 µM | IC50 at 72 h (in vitro): 42.1 µM | IC50 (A-375): 15 µM
Compound: O=C(CCCCCOc1ccc(Cl)c2cccnc12)NO

IC50 (SK-MEL-5 [1]): 3.7 µM | IC50 at 72 h (in vitro): 6.94 µM | IC50 (A-375): 3.45 µM
Compound: O=C(/C=C/c1ccc(COc2ccc(Cl)c3cccnc23)cc1)NO

IC50 (SK-MEL-5 [1]): 6.27 µM | IC50 at 72 h (in vitro): 19.5 µM | IC50 (A-375): 6.57 µM
Compound: O=C(CCCOc1ccc(Cl)c2cccnc12)NO

IC50 (SK-MEL-5 [1]): 2.16 µM
Compound: O=C(CCCCCCC(=O)Nc1ccccc1)NO [VORINOSTAT]
Activity (SK-MEL-5 [2]): 32.5% | Activity (SK-MEL-5 [3]): 55.91% | Activity (SK-MEL-5 [4]): 24.22% | Activity (SK-MEL-5 [5]): 57.12% | Activity (SK-MEL-5 [6]): 19.87% | Activity (SK-MEL-5 [7]): 7.99% | Activity (SK-MEL-5 [8]): 2.39%

IC50 (Histone deacetylase 4): 19.3 µM | IC50 (SK-MEL-5 [1]): 0.93 µM | IC50 at 72 h (in vitro): 3.64 µM | IC50 (A-375): 1.2 µM
Compound: O=C(CCCCCCOc1cccc2cccnc12)NO
inhibition (SK-MEL-5 [9]): Dose-dependent-effect | Activity (SK-MEL-5 [10]): 2.81% | Activity [11]: Non-toxic | Activity (SK-MEL-5 [12]): 11.27% | Activity (SK-MEL-5 [2]): 35.15% | inhibition in vivo at 30 mg/kg (SK-MEL-5 [13]): 50.2% | Activity (SK-MEL-5 [3]): 50.23% | inhibition (SK-MEL-5 [14]): Active | Activity (SK-MEL-5 [15]): Dose-dependent-effect | viability at 1 µM (SK-MEL-5 [16]): 77.8% | inhibition (SK-MEL-5 [17]): inactive | Activity (SK-MEL-5 [4]): 27.75% | viability at 5 µM (SK-MEL-5 [5]): 49.9% | Activity (SK-MEL-5 [18]): 0.85% | Activity (SK-MEL-5 [19]): 8.03% | Activity (SK-MEL-5 [6]): 22.01% | Activity (SK-MEL-5 [20]): inactive | Activity (SK-MEL-5 [7]): 12.52% | Activity (SK-MEL-5 [21]): 4.41% | Activity (SK-MEL-5 [8]): 2.39% | Activity (SK-MEL-5 [22]): 16% | viability at 0.2 µM (SK-MEL-5 [23]): 92.7% | Activity (SK-MEL-5 [24]): 59.45% | Activity (SK-MEL-5 [25]): 23.77% | Activity (SK-MEL-5 [26]): 9.75% | Activity (SK-MEL-5 [27]): 64.96% | Activity (SK-MEL-5 [28]): 3.68% | Activity (SK-MEL-5 [29]): 24.55%

IC50 (SK-MEL-5 [1]): 15 µM | IC50 at 72 h (in vitro): 18.4 µM | IC50 (A-375): 15.1 µM
Compound: O=C(NO)c1ccc(COc2cccc3cccnc23)cc1

IC50 (SK-MEL-5 [1]): 8.53 µM | IC50 at 72 h (in vitro): 21.3 µM | IC50 (A-375): 9.78 µM
Compound: O=C(NO)c1ccccc1COc1ccc(Cl)c2cccnc12

IC50 (SK-MEL-5 [1]): 5 µM | IC50 at 72 h (in vitro): 20.4 µM | IC50 (A-375): 6.08 µM
Compound: Oc1ccc(Cl)c2cccnc12 [CLOXYQUIN]
Activity (SK-MEL-5 [2]): 6.96% | inhibition in vivo at 30 mg/kg (SK-MEL-5 [13]): 24.3% | Activity (SK-MEL-5 [3]): 58.85% | Activity (SK-MEL-5 [4]): 27.67% | viability at 5 µM (SK-MEL-5 [5]): 85.1% | Activity (SK-MEL-5 [6]): 13.48% | Activity (SK-MEL-5 [7]): 4.88% | Activity (SK-MEL-5 [8]): 3.08%

IC50 (SK-MEL-5 [1]): 12.7 µM | IC50 at 72 h (in vitro): 28.1 µM | IC50 (A-375): 13.8 µM
Compound: O=C(CCCCCOc1cccc2cccnc12)NO

IC50 (SK-MEL-5 [1]): 3.67 µM | IC50 at 72 h (in vitro): 7.34 µM | IC50 (A-375): 3.72 µM
Compound: O=C(/C=C/c1ccc(COc2cccc3cccnc23)cc1)NO

IC50 (SK-MEL-5 [1]): 13.7 µM | IC50 at 72 h (in vitro): 29 µM | IC50 (A-375): 13.3 µM
Compound: O=C(NO)c1ccc(CCOc2cccc3cccnc23)cc1

IC50 (SK-MEL-5 [1]): 10.8 µM | IC50 at 72 h (in vitro): 23.3 µM | IC50 (A-375): 11.9 µM
Compound: O=C(NO)c1ccc(CCOc2ccc(Cl)c3cccnc23)cc1

IC50 (SK-MEL-5 [1]): 3.47 µM | IC50 at 72 h (in vitro): 8.07 µM | IC50 (A-375): 3.68 µM
Compound: O=C(CCCCCCOc1ccc(Cl)c2cccnc12)NO
